From patent US20130123184A1, “METHODS FOR […] OF HUMAN FETAL HEMOGLOBIN” (National Institutes of Health, priority 2007, published 2013)
“Also recorded” adds a separate entry of the source.

Experiments:
[1] = test system: human β globin gene expression; experiment: erythroid colony forming unit (CFUe) assay, real-time PCR of human β globin gene expression; assay type: cell-based; conditions: 0.185 nM or 1.85 nM; relative to mouse α levels and control
Experimental: (§1) Experiments were performed with mice that are transgenic for a yeast artificial chromosome that contains the full human β-globin locus. […] However mice do have the appropriate transcription factors to interpret and express the human globin locus.
(§2) To determine if romidepsin alters human globin expression erythroid colony forming unit assays were conducted. This involved extracting fetal liver cells from the developing embryo, at a time when both γ and β globin are expressed. Cells were then cultured in a semi-solid media (methyl-cellulose) containing growth factors (SCF and Epo) with or without romidepsin. We harvested CFUe colonies at 2 days of culture (a pool of 10 from each treatment, each treatment was performed in duplicate) and performed an immediate cell lysis and cDNA amplification. The cDNA was then subjected to real-time PCR to determine levels of mouse α, human γ and human β globin gene expression. The cells were treated with a range of romidepsin concentrations from 0.185 nM to 18.5 nM, and the colony assay was performed on 6 separate occasions.
(§3) The results (0.185 nM or 1.85 nM romidepsin) are presented in FIG. 1 relative to mouse α levels, and relative to the control performed in each particular experiment. […] When the 0.185 nM and 1.85 nM data are combined there is a 130-fold increase in γ globin expression, as compared to mouse α globin expression and untreated cells.

fetal liver cells = experiment: toxicity analysis of CFUe colonies (number and size of colonies); assay type: cell-based, mouse
Experimental: as §2
Each colony was also analyzed for toxicity effects. […] Thus globin analysis at this dose is not presented.

[2] = test system: human γ globin gene expression; experiment: erythroid colony forming unit (CFUe) assay, real-time PCR of human γ globin gene expression; assay type: cell-based, mouse
Experimental: as §1, §2, §3

fetal hemoglobin = experiment: circulating fetal hemoglobin levels in phase II clinical trial patients (CTCL and PTCL); assay type: in vivo, human; conditions: at least two months, 44 patients evaluated
Experimental: As part of an ongoing phase II clinical trial into the effects of romidepsin in patients with cutaneous (CTCL) and peripheral (PTCL) T-cell lymphoma, the levels of circulating fetal hemoglobin were determined. From a total of 53 patients in the trial, 44 were evaluated. Romidepsin was administered as a 4 hour infusion on days 1, 8, and 15 of a 28 day cycle with a dose of 14 mg/m^2. Fetal hemoglobin levels were measured during at least two months of treatment with romidepsin. Fetal hemoglobin levels were expressed first as a percent of the patient's total hemoglobin and then corrected (by multiplying the total hemoglobin by percent fetal hemoglobin).

[3] = fold increase in fetal hemoglobin 0-2, 14 mg/m^2 4 hour infusion days 1, 8, 15 of 28 day cycle
[4] = fold increase in fetal hemoglobin 2-5, 14 mg/m^2
[5] = fold increase in fetal hemoglobin 5-10, 14 mg/m^2
[6] = fold increase in fetal hemoglobin 10-20, 14 mg/m^2
[7] = fold increase in fetal hemoglobin >2, 14 mg/m^2
[8] = fold increase in fetal hemoglobin >5, 14 mg/m^2
[9] = fold increase in fetal hemoglobin >10, 14 mg/m^2
[10] = fold increase in fetal hemoglobin >20, 14 mg/m^2

C/C=C1\NC(=O)[C@H]2CSSCC/C=C/[C@H](CC(=O)N[C@H](C(C)C)C(=O)N2)OC(=O)[C@H](C(C)C)NC1=O [romidepsin, (1S,4S,10S,16E,21R)-7-[(2Z)-ethylidene]-4,21-diisopropyl-2-oxa-12,13-dithia-5,8,20,23-tetraazabicyclo[8.7.6]tricos-16-ene-3,6,9,19,22-pentanone]
β globin gene expression following romidepsin treatment [1]: not affected; also recorded: no change | total number of colonies or size of CFUe (fetal liver cells; 0.185 nM and 1.85 nM): no differences | toxicity to the fetal liver cells (fetal liver cells; 18.5 nM, accurate data not gathered): toxic | fold increase in γ globin expression ([2]; 0.185 nM and 1.85 nM data combined, compared to mouse α globin expression and untreated cells, transgenic fetal liver CFUe colonies, 2 days of culture, mean±SEM, n=6): 130 fold | γ globin gene expression following romidepsin treatment ([2]; 0.185 nM or 1.85 nM, relative to mouse α levels and control): increase; also recorded: up-regulation | expression of human globin at the highest doses ([2]; highest doses of romidepsin): lower | % of patients (fetal hemoglobin; [3]): 23% | Number of patients (fetal hemoglobin; [3]): 10 | % of patients (fetal hemoglobin; [4]): 23% | Number of patients (fetal hemoglobin; [4]): 10 | % of patients (fetal hemoglobin; [5]): 20% | Number of patients (fetal hemoglobin; [5]): 9 | % of patients (fetal hemoglobin; [6]): 23% | Number of patients (fetal hemoglobin; [6]): 10 | % of patients (fetal hemoglobin; [7]): 77% | Number of patients (fetal hemoglobin; [7]): 34 | % of patients (fetal hemoglobin; [8]): 55% | Number of patients (fetal hemoglobin; [8]): 24 | % of patients (fetal hemoglobin; [9]): 34% | Number of patients (fetal hemoglobin; [9]): 15 | % of patients (fetal hemoglobin; [10]): 11% | Number of patients (fetal hemoglobin; [10]): 5
